Numbers after ± are expanded uncertainties.
Test: osmotic coefficient (dimensionless); mn = molality of the nth substance listed, in mol/kg
Details: Liquid, vapor pressure osmometry

Compound CCC[n+]1ccn(C)c1.[Br-] [1-methyl-3-propylimidazolium bromide] + O has an osmotic coefficient (298.15 K, m1 = 0.0071) of 0.942 ± 0.038, an osmotic coefficient (298.15 K, m1 = 0.0141) of 0.917 ± 0.037 and an osmotic coefficient (298.15 K, m1 = 0.0243) of 0.903 ± 0.036. For the same compound, the osmotic coefficient (298.15 K, m1 = 0.0338) was 0.894 ± 0.036, the osmotic coefficient (298.15 K, m1 = 0.0462) was 0.89 ± 0.036 and the osmotic coefficient (298.15 K, m1 = 0.0667) was 0.865 ± 0.035. For the same compound, the osmotic coefficient (298.15 K, m1 = 0.0898) was 0.855 ± 0.035, the osmotic coefficient (298.15 K, m1 = 0.1081) was 0.839 ± 0.034 and the osmotic coefficient (298.15 K, m1 = 0.1529) was 0.82 ± 0.033. It also gave an osmotic coefficient (298.15 K, m1 = 0.194) of 0.807 ± 0.033, an osmotic coefficient (298.15 K, m1 = 0.2403) of 0.798 ± 0.033 and an osmotic coefficient (298.15 K, m1 = 0.3018) of 0.783 ± 0.032. The osmotic coefficient (298.15 K, m1 = 0.3677) was 0.762 ± 0.032, the osmotic coefficient (298.15 K, m1 = 0.4338) was 0.755 ± 0.031 and the osmotic coefficient (298.15 K, m1 = 0.5359) was 0.742 ± 0.031. The osmotic coefficient (298.15 K, m1 = 0.8595) was 0.706 ± 0.03, the osmotic coefficient (298.15 K, m1 = 1.029) was 0.702 ± 0.03 and the osmotic coefficient (298.15 K, m1 = 1.604) was 0.674 ± 0.029. It also gave an osmotic coefficient (298.15 K, m1 = 2.104) of 0.676 ± 0.029, an osmotic coefficient (298.15 K, m1 = 2.705) of 0.671 ± 0.029 and an osmotic coefficient (308.15 K, m1 = 0.0071) of 0.928 ± 0.037. The osmotic coefficient (308.15 K, m1 = 0.0141) was 0.925 ± 0.037, the osmotic coefficient (308.15 K, m1 = 0.0243) was 0.902 ± 0.036 and the osmotic coefficient (308.15 K, m1 = 0.0338) was 0.904 ± 0.036. For the same compound, the osmotic coefficient (308.15 K, m1 = 0.0462) was 0.892 ± 0.036, the osmotic coefficient (308.15 K, m1 = 0.0667) was 0.875 ± 0.035 and the osmotic coefficient (308.15 K, m1 = 0.0898) was 0.864 ± 0.035. It also gave an osmotic coefficient (308.15 K, m1 = 0.1081) of 0.851 ± 0.034, an osmotic coefficient (308.15 K, m1 = 0.1529) of 0.835 ± 0.034 and an osmotic coefficient (308.15 K, m1 = 0.194) of 0.816 ± 0.033. The osmotic coefficient (308.15 K, m1 = 0.2403) was 0.802 ± 0.033, the osmotic coefficient (308.15 K, m1 = 0.3018) was 0.792 ± 0.033 and the osmotic coefficient (308.15 K, m1 = 0.3677) was 0.772 ± 0.032. It also gave an osmotic coefficient (308.15 K, m1 = 0.4338) of 0.761 ± 0.032, an osmotic coefficient (308.15 K, m1 = 0.5359) of 0.749 ± 0.031 and an osmotic coefficient (308.15 K, m1 = 0.8595) of 0.72 ± 0.03. For the same compound, the osmotic coefficient (308.15 K, m1 = 1.029) was 0.714 ± 0.03, the osmotic coefficient (308.15 K, m1 = 1.604) was 0.696 ± 0.03 and the osmotic coefficient (308.15 K, m1 = 2.104) was 0.69 ± 0.03. For the same compound, the osmotic coefficient (308.15 K, m1 = 2.705) was 0.683 ± 0.03, the osmotic coefficient (318.15 K, m1 = 0.0071) was 0.961 ± 0.038 and the osmotic coefficient (318.15 K, m1 = 0.0141) was 0.951 ± 0.038. It also gave an osmotic coefficient (318.15 K, m1 = 0.0243) of 0.925 ± 0.037, an osmotic coefficient (318.15 K, m1 = 0.0338) of 0.92 ± 0.037 and an osmotic coefficient (318.15 K, m1 = 0.0462) of 0.91 ± 0.037. The osmotic coefficient (318.15 K, m1 = 0.0667) was 0.898 ± 0.036, the osmotic coefficient (318.15 K, m1 = 0.0898) was 0.874 ± 0.035 and the osmotic coefficient (318.15 K, m1 = 0.1081) was 0.867 ± 0.035. The osmotic coefficient (318.15 K, m1 = 0.1529) was 0.857 ± 0.035, the osmotic coefficient (318.15 K, m1 = 0.194) was 0.836 ± 0.034 and the osmotic coefficient (318.15 K, m1 = 0.2403) was 0.812 ± 0.033. For the same compound, the osmotic coefficient (318.15 K, m1 = 0.3018) was 0.805 ± 0.033, the osmotic coefficient (318.15 K, m1 = 0.3677) was 0.793 ± 0.033 and the osmotic coefficient (318.15 K, m1 = 0.4338) was 0.776 ± 0.032. It also gave an osmotic coefficient (318.15 K, m1 = 0.5359) of 0.753 ± 0.031, an osmotic coefficient (318.15 K, m1 = 0.8595) of 0.728 ± 0.031 and an osmotic coefficient (318.15 K, m1 = 1.029) of 0.717 ± 0.03. For the same compound, the osmotic coefficient (318.15 K, m1 = 1.604) was 0.702 ± 0.03, the osmotic coefficient (318.15 K, m1 = 2.104) was 0.694 ± 0.03 and the osmotic coefficient (318.15 K, m1 = 2.705) was 0.701 ± 0.03. The osmotic coefficient (328.15 K, m1 = 0.0071) was 0.947 ± 0.038, the osmotic coefficient (328.15 K, m1 = 0.0141) was 0.95 ± 0.038 and the osmotic coefficient (328.15 K, m1 = 0.0243) was 0.924 ± 0.037. It also gave an osmotic coefficient (328.15 K, m1 = 0.0338) of 0.926 ± 0.037, an osmotic coefficient (328.15 K, m1 = 0.0462) of 0.91 ± 0.037 and an osmotic coefficient (328.15 K, m1 = 0.0667) of 0.896 ± 0.036. For the same compound, the osmotic coefficient (328.15 K, m1 = 0.0898) was 0.875 ± 0.035, the osmotic coefficient (328.15 K, m1 = 0.1081) was 0.864 ± 0.035 and the osmotic coefficient (328.15 K, m1 = 0.1529) was 0.851 ± 0.034. It also gave an osmotic coefficient (328.15 K, m1 = 0.194) of 0.842 ± 0.034, an osmotic coefficient (328.15 K, m1 = 0.2403) of 0.818 ± 0.033 and an osmotic coefficient (328.15 K, m1 = 0.3018) of 0.813 ± 0.033. The osmotic coefficient (328.15 K, m1 = 0.3677) was 0.794 ± 0.033, the osmotic coefficient (328.15 K, m1 = 0.4338) was 0.787 ± 0.032 and the osmotic coefficient (328.15 K, m1 = 0.5359) was 0.76 ± 0.032. The osmotic coefficient (328.15 K, m1 = 0.8595) was 0.735 ± 0.031, the osmotic coefficient (328.15 K, m1 = 1.029) was 0.724 ± 0.031 and the osmotic coefficient (328.15 K, m1 = 1.604) was 0.704 ± 0.03. It also gave an osmotic coefficient (328.15 K, m1 = 2.104) of 0.701 ± 0.03 and an osmotic coefficient (328.15 K, m1 = 2.705) of 0.709 ± 0.03.

Source: the NIST ThermoML archive (doi:10.1016/j.jct.2008.07.011)
